Data reported in patent publication US9109048B2, “Inhibition of tumor growth” (priority 1998, dated 2015).
Values after ≈ are worked out from the molar mass of the structure shown. Where two headings read alike, the source gives them in different places. Square brackets hold non-standard residues; d marks the D form. Ends that are not written are not given here. Peptide text beside a SMILES is read from it. Orn = NCCC[C@H](N)C(=O)O

Tests used:
[1] = system: Staphylococcus aureus ATCC 25923; experiment: MIC (minimum inhibitory concentration) test, microdilution; assay type: cell-based
Description: (§1) The bacterial strains used were: Escherichia coli ATCC 25922 and Staphylococcus aureus ATCC 25923. All strains were stored at −70° C. The bacteria were grown in 2% Bacto Peptone water (Difco 1807-17-4). All tests were performed with bacteria in mid-logarithmic growth phase. Determination of the minimum inhibitory concentration (MIC) of the peptides for bacterial strains were performed in 1% Bacto Peptone water. A standard microdilution technique with an inoculum of 2×10^6 CFU/ml was used. All assays were performed in triplets. Since the peptides are positively charged and therefore could adhere to the plastic wells, we controlled the actual concentration of the peptides in the solution by HPLC. There was no difference between the concentration of the peptides before or after adding the solution to the plastic wells.

[2] = system: human red blood cells; experiment: Hemolytic assay; assay type: cell-based
Description: The hemolytic activities of the peptides were determined using fresh human red blood cells. 8 ml blood was taken from a healthy person. 4 ml blood was transferred to a polycarbonate tube containing heparin to a final concentration of 10 U/ml, and the remaining 4 ml blood was transferred to a glass tube containing EDTA with final concentration of 15% EDTA. The erythrocytes were isolated from heparin-treated blood by centrifugation in 1500 rpm for 10 min and washed three times with phosphate-buffered saline (PBS) to remove plasma and buffy coat. The cell pellet was resuspended in PBS to make the final volume of 4 ml. The peptide was diluted to a concentration of 2 mg/ml and 0.1 mg/ml. The peptide was further diluted to the concentrations as stated in Table 1. For each tube PBS was added first, then RBCs and peptide solutions. The hematocrit in the blood treated with EDTA was determined after 30 min with Sysmex K-1000, and the resuspended RBCs were diluted into 10% hematocrit. RBCs in PBS (1%) with and without peptides (Table 18) were incubated in a shaker at 37° for 1 hour and then centrifuged at 4000 rpm for 5 min. The supernatant were carefully transferred to new polycarbonate tubes and the absorbance of the supernatant was measured at 540 nm. Baseline hemolysis was hemoglobin released in the presence of PBS, and 100% hemolysis was hemoglobin released in the presence of 0.1% Triton X-100.

[3] = system: MRSA (methicillin resistant S. aureus); assay type: cell-based
Description: as §1
(§2) Table 15 below gives the antibacterial activity and toxicity data for some preferred peptides of the invention. MRSA is methicillin resistant S. aureus and MRSE is methicilin resistant S. epidermidis.

[4] = system: Escherichia coli ATCC 25922; experiment: MIC (minimum inhibitory concentration) test, microdilution; assay type: cell-based
Description: as §1

[5] = system: Meth A fibrosarcoma; experiment: Tumor regression, murine Meth A fibrosarcoma; assay type: in vivo, mice
Description: Specific pathogen-free CB6F1 (Balb/c×C57 BL/6) female mice of about 8 weeks of age were obtained from Charles River (Germany). The mice were kept on standard laboratory chow and water. Tumor bearing mice were serologically screened for viral (LDH, CMV) and mycoplasmic infection and in all cases tested negative.
After a single inoculation of 5×10^7 viable Meth A cells, different LF peptides were injected intratumorally (LFB-14-31, LFB 17-31 Pmc, 500 μg in a 50 μl dose; LFB 17-31, 1000 μg in a 50 μl dose), on day 7 and day 10. LFB 14-31 was also injected intraperitoneally (PBI), 500 μg/ml. Saline only was injected in the control mice (50 μl) (K1,K2,K3). The tumor diameter (mean of transversal and longitudinal) were measured with an electronic calipper.

[6] = system: human promyelotic leukemia cell line HL 60; experiment: Cytotoxicity on HL 60 cells, MTT; assay type: cell-based
Description: HL 60 cells, 1×10^4 were incubated with peptides 50, 30, 20, 10, 5, 1 μg, 1000-20 μg/ml in 2 hours and coloured with MTT;

[7] = system: MRSE (methicilin resistant S. epidermidis); assay type: cell-based
Description: as §1, §2

[8] = injected intratumorally on day 7 and day 10
[9] = Table 1, synthetic lactoferricins

| MIC S. aureus ([1]; Table 15) [µg/mL] | MIC MRSA ([3]; Table 15) [µg/mL] | MIC MRSA ([3]; methicillin resistant) [µM] | MIC E. coli ([4]; ATCC 25922) [µM] | MIC E. coli ([4]; Table 15) [µg/mL] | MIC MRSE ([7]; methicilin resistant) [µM] | Compound | EC50 ([2]; red cells of human) [µM] | EC 50 (toxicity, hemolysis) ([2]; red cells of human) [µg/mL] | also measured |
| --- | --- | --- | --- | --- | --- | --- | --- | --- | --- |
| 2.5 | 2.5 | 1.2 | – | – | – | CSCC[C@H](NC(=O)[C@H](CCCN)NC(=O)[C@H](Cc1c[nH]c2ccccc12)NC(=O)[C@H](C)NC(=O)[C@H](Cc1c[nH]c2ccccc12)NC(=O)[C@H](CCCN)NC(=O)[C@H](Cc1ccccc1)NC(=O)[C@H](C)NC(=O)[C@H](CCCN)NC(=O)[C@H](CCCN)NC(=O)[C@H](Cc1c[nH]c2ccccc12)NC(=O)[C@H](C)NC(=O)[C@@H]1CCCN1)C(=O)N[C@@H](CC(C)C)C(=O)N[C@@H](CCCN)C(=O)N[C@@H](CCCN)C(=O)N[C@@H](C)C(=O)N[C@@H](C)C(=O)O (H-PAW[Orn][Orn]AF[Orn]WAW[Orn]ML[Orn][Orn]AA-OH; N-terminus assumed) | 202 | – | MIC S. aureus ([1]; ATCC 25923): 1.2 µM; EC 50 (toxicity, hemolysis) ([2]; Table 15): 425 µg/mL (≈ 202 µM) |
| – | 5.0 | 2.2 | 8.8 | 20.0 | – | CSCC[C@H](NC(=O)[C@H](CCCNC(=N)N)NC(=O)[C@H](Cc1c[nH]c2ccccc12)NC(=O)[C@H](C)NC(=O)[C@H](Cc1c[nH]c2ccccc12)NC(=O)[C@H](CCCNC(=N)N)NC(=O)[C@H](CCCNC(=N)N)NC(=O)[C@H](C)NC(=O)[C@H](CCCCN)NC(=O)[C@H](Cc1ccccc1)NC(=O)[C@H](Cc1c[nH]c2ccccc12)NC(=O)[C@H](C)NC(=O)[C@@H]1CCCN1)C(=O)N[C@@H](CCCCN)C(=O)N[C@@H](CCCCN)C(=O)N[C@@H](CC(C)C)C(=O)N[C@@H](C)C(=O)N[C@@H](C)C(=O)O [LFB 14-31 A2,6,10,17] | > 440 | >1000 | MIC E. coli ([4]; Table 8): 20 µg/mL |
| – | – | – | – | – | – | CSCC[C@H](NC(=O)[C@H](CCCNC(=N)N)NC(=O)[C@H](Cc1c[nH]c2ccccc12)NC(=O)[C@H](CCC(N)=O)NC(=O)[C@H](Cc1c[nH]c2ccccc12)NC(=O)[C@H](CCCNC(=N)N)NC(=O)[C@H](CCCNC(=N)N)NC(=O)[C@H](CSCNC(C)=O)NC(=O)[C@H](CCCCN)NC(=O)[C@H](Cc1ccccc1)NC(=O)[C@H](Cc1c[nH]c2ccccc12)NC(=O)[C@H](CCC(=O)O)NC(=O)[C@@H]1CCCN1)C(=O)N[C@@H](CCCCN)C(=O)N[C@@H](CCCCN)C(=O)N[C@@H](CC(C)C)C(=O)NCC(=O)N[C@@H](C)C(=O)O [LFB 14-31] | – | – | effect on Meth A tumors [5, 8]: induced regression of the Meth A tumors; effect on Meth A tumors ([5]; treated intraperitoneally): tumors were also eradicated; Minimum inhibitory concentration (MIC) S. aureus ATCC 25923 ([1]; Table 1, value in parentheses): 80 µM; Minimum inhibitory concentration (MIC) E. coli ATCC 25922 ([4]; Table 1, value in parentheses): 28 µM; cytotoxic effect on human HL 60 cells [6]: no cytotoxic effect |
| – | – | – | – | – | – | CSCC[C@H](NC(=O)[C@H](CCCNC(=N)N)NC(=O)[C@H](Cc1c[nH]c2ccccc12)NC(=O)[C@H](CCC(N)=O)NC(=O)[C@H](Cc1c[nH]c2ccccc12)NC(=O)[C@H](CCCNC(=N)N)NC(=O)[C@H](CCCNC(=N)N)NC(=O)[C@H](CSCNC(C)=O)NC(=O)[C@H](CCCCN)NC(=O)[C@@H](N)Cc1ccccc1)C(=O)N[C@@H](CCCCN)C(=O)N[C@@H](CCCCN)C(=O)N[C@@H](CC(C)C)C(=O)NCC(=O)N[C@@H](C)C(=O)O [LFB 17-31, H2N-Phe-Lys-Cys-Arg-Arg-Trp-Gln-Trp-Arg-Met-Lys-Lys-Leu-Gly-Ala-COOH] | – | – | effect on Meth A tumors [5, 8]: induced regression of the Meth A tumors; Minimum inhibitory concentration (MIC) S. aureus ATCC 25923 ([1]; Table 1, value in parentheses): 50 µM; Minimum inhibitory concentration (MIC) E. coli ATCC 25922 ([4]; Table 1, value in parentheses): 20 µM; cytotoxic effect on human HL 60 cells ([6]; FIG. 7, concentrations tested): no cytotoxic effect |
| – | – | – | – | – | – | CC[C@H](C)[C@H](NC(=O)[C@H](CO)NC(=O)[C@@H]1CCCN1C(=O)[C@H](C)NC(=O)CNC(=O)[C@H](CC(C)C)NC(=O)[C@H](CCCCN)NC(=O)[C@H](CCCCN)NC(=O)[C@H](CCSC)NC(=O)[C@H](CCCNC(=N)N)NC(=O)[C@H](Cc1c[nH]c2ccccc12)NC(=O)[C@H](CCC(N)=O)NC(=O)[C@H](Cc1c[nH]c2ccccc12)NC(=O)[C@H](CCCNC(=N)N)NC(=O)[C@H](CCCNC(=N)N)NC(=O)[C@H](CSCNC(C)=O)NC(=O)[C@H](CCCCN)NC(=O)[C@@H](N)Cc1ccccc1)C(=O)N[C@H](C(=O)N[C@@H](CSCNC(C)=O)C(=O)N[C@H](C(=O)N[C@@H](CCCNC(=N)N)C(=O)N[C@@H](CCCNC(=N)N)C(=O)N[C@@H](C)C(=O)N[C@@H](Cc1ccccc1)C(=O)O)C(C)C)[C@@H](C)O [LFB (17-41), reference compound] | – | – | Minimum inhibitory concentration (MIC) S. aureus ATCC 25923 [1, 9]: 30 µg/mL; Minimum inhibitory concentration (MIC) E. coli ATCC 25922 [4, 9]: 30 µg/mL; cytotoxic effect on human HL 60 cells ([6]; FIG. 7, concentrations tested): weak concentration dependant cytotoxic effect |
| 20.0 | 5.0 | – | – | 10.0 | – | CSCC[C@H](NC(=O)[C@H](CCCNC(=N)N)NC(=O)[C@H](Cc1ccc2ccccc2c1)NC(=O)[C@H](CCC(N)=O)NC(=O)[C@H](Cc1ccc2ccccc2c1)NC(=O)[C@H](CCCNC(=N)N)NC(=O)[C@H](CCCNC(=N)N)NC(=O)[C@H](CSCNC(C)=O)NC(=O)[C@H](CCCCN)NC(=O)[C@@H](N)Cc1ccccc1)C(=O)N[C@@H](CCCCN)C(=O)N[C@@H](CCCCN)C(=O)N[C@@H](CC(C)C)C(=O)NCC(=O)N[C@@H](C)C(=O)O [LFB Nal6,8] | – | >1000 | MIC S. aureus ([1]; Table 9): 20 µg/mL; MIC E. coli ([4]; Table 9): 10 µg/mL |
| 2.5 | 2.5 | 1.1 | 4.3 | 10.0 | – | CSCC[C@H](NC(=O)[C@H](CCCNC(=N)N)NC(=O)[C@H](Cc1c[nH]c2ccccc12)NC(=O)[C@H](CCC(N)=O)NC(=O)[C@H](Cc1c(S(=O)(=O)c2c(C)c(C)c3c(c2C)CCC(C)(C)O3)[nH]c2ccccc12)NC(=O)[C@H](CCCNC(=N)N)NC(=O)[C@H](CCCNC(=N)N)NC(=O)[C@H](CSCNC(C)=O)NC(=O)[C@H](CCCCN)NC(=O)[C@@H](N)Cc1ccccc1)C(=O)N[C@@H](CCCCN)C(=O)N[C@@H](CCCCN)C(=O)N[C@@H](CC(C)C)C(=O)NCC(=O)N[C@@H](C)C(=O)O [LFB PMC6] | – | >1000 | MIC E. coli ([4]; Table 13): 10 µg/mL |
| – | – | 1.1 | 4.5 | – | 1.1 | H-FKWRRWQWRMKKLWA-OH [LFBW3,14, H2N-Phe-Lys-Trp-Arg-Arg-Trp-Gln-Trp-Arg-Met-Lys-Lys-Leu-Trp-Ala-COOH] | – | >1000 | MIC S. aureus ([1]; Table 15, 14): 2.5 µg/mL; MIC E. coli ([4]; Table 14): 10 µg/mL; MIC E. coli ([4]; Table 15, 14): 10.0 µg/mL; MIC MRSA ([3]; Table 15, 14): 2.5 µg/mL; MIC MRSE ([7]; Table 15, 14): 2.5 µg/mL |
| – | 1.0 | 0.7 | 3.7 | 5.0 | 1.8 | RRWYRWWR-NH2 [LFM 17-24 R1,2,8 W3,7Y4NH2] | > 733 | >1000 | MIC E. coli ([4]; Table 12): 5 µg/mL; MIC MRSE ([7]; Table 15): 2.5 µg/mL |
| – | – | – | 8.3 | 10.0 | 0.8 | RWWRYWR-NH2 [LFM 18-24 R1,7 W2,3,6Y5NH2, ARG-TRP-TRP-ARG-TYR-TRP-ARG-CONH2] | > 829 | >1000 | MIC S. aureus ([1]; ATCC 25923): 0.4 to 0.8 µM; MIC E. coli ([4]; Table 12): 10 µg/mL; MIC E. coli ([4]; Table 16, peptides with D-amino acids): 10 µg/mL; MIC MRSE ([7]; Table 15): 1.0 µg/mL |
| 2.5 | – | – | 5.9 | 10.0 | 1.5 | YRAWRWAWRWR-NH2 [LFB 17-27 A3,7 R2,11 W4,10 Y1 NH2] | – | – | MIC S. aureus ([1]; ATCC 25923): 1.5 µM; MIC MRSE ([7]; Table 15): 2.5 µg/mL |
